In patent US20070155764A1, “NOVEL SUBSTITUTED PYRIMIDINYLOXY UREAS USEFUL AS INHIBITORS OF PROTEIN KINASES” (KALYPSYS, INC., priority 2005, published 2007):

Assays:
Format in all cases: biochemical
[1] = target: T1, human B-Raf protein kinase (Homo sapiens, UniProt P15056); assay: In vitro B-Raf/Mek1 composite kinase assay; conditions: recombinant GST-tagged human B-Raf (Δ1-415) with inactive Mek1, 2 μM ATP
T1 construct: GST (N); purchased Upstate Inc. 14-530 (B-Raf); 14-420 (Mek1)
Summary of the method: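 Luminescent ATP-depletion assay using recombinant N-terminal GST-tagged human B-Raf (Δ1-415, 1 ng/well) in MOPS pH 7.2 buffer with 10 mM MgCl2. Compounds were preincubated 15 min at about 22° C, then the reaction ran 2 h before PKLight readout. Efficacy is expressed as percentage of positive-control (Bay 43-9006) activity.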

VEGFR2 kinase = target: T2, VEGFR2 kinase (Homo sapiens, UniProt P35968); assay: In vitro VEGFR2 kinase assay; conditions: ADP Quest assay, poly Glu:Tyr substrate, 60 μM ATP
T2 construct: purchased Invitrogen Inc PV3660
T2 sequence (P35968 20-1356): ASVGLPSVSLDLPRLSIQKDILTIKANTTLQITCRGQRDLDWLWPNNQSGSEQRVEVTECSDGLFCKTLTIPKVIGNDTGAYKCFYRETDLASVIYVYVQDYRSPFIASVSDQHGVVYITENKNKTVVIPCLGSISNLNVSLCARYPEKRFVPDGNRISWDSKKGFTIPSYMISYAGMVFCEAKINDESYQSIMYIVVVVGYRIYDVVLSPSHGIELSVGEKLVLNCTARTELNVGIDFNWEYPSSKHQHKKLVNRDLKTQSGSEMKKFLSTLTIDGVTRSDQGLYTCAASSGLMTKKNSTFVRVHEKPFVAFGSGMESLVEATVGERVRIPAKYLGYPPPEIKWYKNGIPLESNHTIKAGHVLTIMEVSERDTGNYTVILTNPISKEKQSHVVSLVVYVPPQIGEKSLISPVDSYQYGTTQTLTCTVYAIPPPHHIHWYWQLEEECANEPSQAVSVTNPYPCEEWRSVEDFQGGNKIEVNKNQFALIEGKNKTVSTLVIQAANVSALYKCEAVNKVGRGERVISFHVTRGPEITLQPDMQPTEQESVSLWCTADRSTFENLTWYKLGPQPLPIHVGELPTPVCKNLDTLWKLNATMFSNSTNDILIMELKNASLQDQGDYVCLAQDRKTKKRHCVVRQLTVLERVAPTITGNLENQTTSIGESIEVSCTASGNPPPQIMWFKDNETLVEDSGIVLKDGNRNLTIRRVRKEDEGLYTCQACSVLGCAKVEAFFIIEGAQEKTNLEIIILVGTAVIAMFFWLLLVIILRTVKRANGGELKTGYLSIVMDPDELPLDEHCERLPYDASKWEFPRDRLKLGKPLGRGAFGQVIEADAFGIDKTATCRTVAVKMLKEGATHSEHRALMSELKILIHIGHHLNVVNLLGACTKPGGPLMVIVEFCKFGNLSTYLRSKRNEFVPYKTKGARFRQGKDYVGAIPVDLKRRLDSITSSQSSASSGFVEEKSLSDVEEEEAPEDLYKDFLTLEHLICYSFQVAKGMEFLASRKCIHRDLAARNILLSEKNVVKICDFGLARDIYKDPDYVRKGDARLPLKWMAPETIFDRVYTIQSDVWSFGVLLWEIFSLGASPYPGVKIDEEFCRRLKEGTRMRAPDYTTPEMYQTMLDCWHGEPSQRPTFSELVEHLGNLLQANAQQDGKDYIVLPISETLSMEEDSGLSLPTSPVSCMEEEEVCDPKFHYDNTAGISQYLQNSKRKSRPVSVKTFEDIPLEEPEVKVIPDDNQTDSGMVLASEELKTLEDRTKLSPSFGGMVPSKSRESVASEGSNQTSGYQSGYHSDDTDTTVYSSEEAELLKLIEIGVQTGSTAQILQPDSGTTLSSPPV
Summary of the method: (§1)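 Compound was preincubated 10 min at ~22 °C with 20 ng VEGFR2 or 25 ng PDGFRβ, then poly Glu:Tyr (4:1) substrate (0.25 μg) with 60 μM ATP (in added buffer) was reacted 2 h at 30 °C. ADP Quest resorufin fluorescence was read (ex 530/em 580) after 30 min. Efficacy is expressed as percent of positive-control (Bay 43-9006) activity, with DMSO as negative control.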

PDGFRβ kinase = target: T3, PDGFRβ kinase (Homo sapiens, UniProt P09619); assay: In vitro PDGFRβ kinase assay; conditions: ADP Quest assay, poly Glu:Tyr substrate, 60 μM ATP
T3 construct: purchased Invitrogen Inc. P3082
T3 sequence (P09619 33-1106): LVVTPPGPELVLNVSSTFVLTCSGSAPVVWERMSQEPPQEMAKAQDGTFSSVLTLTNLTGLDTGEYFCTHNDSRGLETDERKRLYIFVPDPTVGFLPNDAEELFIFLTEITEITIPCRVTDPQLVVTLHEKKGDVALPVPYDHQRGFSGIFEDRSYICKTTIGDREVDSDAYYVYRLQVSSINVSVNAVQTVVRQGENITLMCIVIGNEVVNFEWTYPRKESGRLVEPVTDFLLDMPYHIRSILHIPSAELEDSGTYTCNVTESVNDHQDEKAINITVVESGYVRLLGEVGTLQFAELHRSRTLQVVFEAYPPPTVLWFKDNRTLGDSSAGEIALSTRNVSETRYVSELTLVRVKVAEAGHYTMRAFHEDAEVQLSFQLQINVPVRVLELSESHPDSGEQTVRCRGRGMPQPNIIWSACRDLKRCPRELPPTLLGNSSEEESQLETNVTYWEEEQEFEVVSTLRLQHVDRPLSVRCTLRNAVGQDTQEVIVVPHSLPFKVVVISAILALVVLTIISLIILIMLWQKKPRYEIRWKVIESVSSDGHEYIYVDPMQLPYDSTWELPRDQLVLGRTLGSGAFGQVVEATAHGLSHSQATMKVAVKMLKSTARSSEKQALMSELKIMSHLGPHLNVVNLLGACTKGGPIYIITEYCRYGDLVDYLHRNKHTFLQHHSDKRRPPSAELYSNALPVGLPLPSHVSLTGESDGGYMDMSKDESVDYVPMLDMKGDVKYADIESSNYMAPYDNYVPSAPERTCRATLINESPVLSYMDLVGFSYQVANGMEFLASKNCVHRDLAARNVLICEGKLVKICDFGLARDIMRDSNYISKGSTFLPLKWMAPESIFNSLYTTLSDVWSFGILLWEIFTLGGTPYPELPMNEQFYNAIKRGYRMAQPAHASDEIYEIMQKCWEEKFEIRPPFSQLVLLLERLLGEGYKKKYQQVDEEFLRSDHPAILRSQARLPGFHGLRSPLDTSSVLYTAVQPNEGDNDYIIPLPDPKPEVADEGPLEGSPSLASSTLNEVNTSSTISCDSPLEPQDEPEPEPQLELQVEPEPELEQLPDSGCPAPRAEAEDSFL
Summary of the method: as §1

T1 sequence (P15056 416-766): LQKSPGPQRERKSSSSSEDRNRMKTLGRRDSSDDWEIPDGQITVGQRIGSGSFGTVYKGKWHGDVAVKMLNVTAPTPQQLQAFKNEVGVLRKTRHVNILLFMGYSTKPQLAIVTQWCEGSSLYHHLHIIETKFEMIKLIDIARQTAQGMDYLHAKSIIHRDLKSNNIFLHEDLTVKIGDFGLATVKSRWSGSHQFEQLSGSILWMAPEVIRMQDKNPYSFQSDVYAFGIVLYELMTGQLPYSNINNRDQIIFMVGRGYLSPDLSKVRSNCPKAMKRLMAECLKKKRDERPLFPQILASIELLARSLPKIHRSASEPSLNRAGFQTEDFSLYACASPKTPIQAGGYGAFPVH

Row | Compound | IC50 [1] | IC50 (VEGFR2 kinase) | IC50 (PDGFRβ kinase)
1 | Cn1cc(-c2nccc(Oc3cccc(NC(=O)Nc4cccc(C(F)(F)F)c4)c3)n2)cn1 [Example 98, 1-(3-(2-(1-Methyl-1H-pyrazol-4-yl)pyrimidin-4-yloxy)phenyl)-3-(3-(trifluoromethyl)phenyl)urea] | ≤ 10 µM | ≤ 10 µM | ≤ 10 µM
2 | Cn1cc(-c2cc(Oc3ccc(F)c(NC(=O)Nc4ccc(C(F)(F)F)cc4)c3)ncn2)cn1 [Example 100, 1-(2-Fluoro-5-(6-(1-methyl-1H-pyrazol-4-yl)pyrimidin-4-yloxy)phenyl)-3-(4-(trifluoromethyl)phenyl)urea] | ≤ 10 µM | ≤ 10 µM | ≤ 10 µM
3 | Cn1cc(-c2nccc(Oc3ccc(NC(=O)Nc4ccc(C(F)(F)F)cc4)cc3)n2)cn1 [Example 102, 1-(4-(2-(1-Methyl-1H-pyrazol-4-yl)pyrimidin-4-yloxy)phenyl)-3-(4-(trifluoromethyl)phenyl)urea] | ≤ 10 µM | ≤ 10 µM | ≤ 10 µM
4 | Cc1cc(NC(=O)Nc2cc(Oc3cc(-c4cnn(C)c4)ncn3)ccc2F)no1 [Example 104, 1-(2-Fluoro-5-(6-(1-methyl-1H-pyrazol-4-yl)pyrimidin-4-yloxy)phenyl)-3-(5-methylisoxazol-3-yl)urea] | ≤ 10 µM | ≤ 10 µM | ≤ 10 µM
5 | Cc1cc(NC(=O)Nc2ccc(Oc3ccnc(-c4cnn(C)c4)n3)cc2)no1 [Example 105, 1-(4-(2-(1-Methyl-1H-pyrazol-4-yl)pyrimidin-4-yloxy)phenyl)-3-(5-methylisoxazol-3-yl)urea] | > 10 µM | ≤ 10 µM | ≤ 10 µM
6 | O=C(Nc1cccc(Oc2cc(-c3ccnc4ncnn34)ncn2)c1)Nc1ccc(Cl)c(C(F)(F)F)c1 [Example 107, 1-(3-(6-([1,2,4]Triazolo[1,5-a]pyrimidin-7-yl)pyrimidin-4-yloxy)phenyl)-3-(4-chloro-3-(trifluoromethyl)phenyl)urea] | ≤ 10 µM | ≤ 10 µM | ≤ 10 µM
7 | CN(C(=O)Nc1cccc(Oc2ccnc(-c3nnco3)c2)c1)c1ccc(Cl)c(C(F)(F)F)c1 [Example 109, 3-(3-(2-(1,3,4-Oxadiazol-2-yl)pyridin-4-yloxy)phenyl)-1-(4-chloro-3-(trifluoromethyl)phenyl)-1-methylurea] | ≤ 10 µM | > 10 µM | > 10 µM
8 | Cc1ccc(F)c(NC(=O)N(C)c2ccc(Oc3ccnc(-c4nnco4)c3)cc2)c1 [Example 112, 3-(2-Fluoro-5-methyl-phenyl)-1-methyl-1-[4-(2-[1,3,4]oxadiazol-2-yl-pyridin-4-yloxy)-phenyl]-urea] | ≤ 10 µM | > 10 µM | ≤ 10 µM
9 | CN(C(=O)Nc1ccc(Cl)c(Cl)c1)c1ccc(Oc2ccnc(-c3nnco3)c2)cc1 [Example 113, 3-(3,4-Dichloro-phenyl)-1-methyl-1-[4-(2-[1,3,4]oxadiazol-2-yl-pyridin-4-yloxy)-phenyl]-urea] | ≤ 10 µM | > 10 µM | ≤ 10 µM
10 | CNC(=O)c1cc(Oc2ccc(N(C)C(=O)Nc3ccc(Cl)c(C(F)(F)F)c3)cc2)ccn1 [Example 114, 4-{4-[3-(4-Chloro-3-trifluoromethyl-phenyl)-1-methyl-ureido]-phenoxy}-pyridine-2-carboxylic acid methylamide] | ≤ 10 µM | ≤ 10 µM | ≤ 10 µM
11 | CNC(=O)c1cccc(NC(=O)N(C)c2ccc(Oc3ccnc(C(=O)NC)c3)cc2)c1 [Example 115, 4-{4-[1-Methyl-3-(3-methylcarbamoyl-phenyl)-ureido]-phenoxy}-pyridine-2-carboxylic acid methylamide] | ≤ 10 µM | > 10 µM | > 10 µM
12 | CNC(=O)c1cc(NC(=O)N(C)c2ccc(Oc3ccnc(C(=O)NC)c3)cc2)cc(C(F)(F)F)c1 [Example 116, 4-{4-[1-Methyl-3-(3-methylcarbamoyl-5-trifluoromethyl-phenyl)-ureido]-phenoxy}-pyridine-2-carboxylic acid methylamide] | > 10 µM | ≤ 10 µM | ≤ 10 µM
13 | CNC(=O)c1cc(Oc2ccc(N(C)C(=O)Nc3cc(OCCOC)cc(C(F)(F)F)c3)cc2)ccn1 [Example 117, 4-(4-{3-[3-(2-Methoxy-ethoxy)-5-trifluoromethyl-phenyl]-1-methyl-ureido}-phenoxy)-pyridine-2-carboxylic acid methylamide] | > 10 µM | ≤ 10 µM | ≤ 10 µM
14 | CNC(=O)c1cc(Oc2ccc(N(C)C(=O)Nc3cc(-n4cnc(C)c4)cc(C(F)(F)F)c3)cc2)ccn1 [Example 118, 4-(4-{1-Methyl-3-[3-(4-methyl-imidazol-1-yl)-5-trifluoromethyl-phenyl]-ureido}-phenoxy)-pyridine-2-carboxylic acid methylamide] | ≤ 10 µM | ≤ 10 µM | ≤ 10 µM
15 | CN(C(=O)Nc1ccc(Cl)c(C(F)(F)F)c1)c1ccc(Oc2ccnc(-c3cnn(C)c3)c2)cc1 [Example 119, 3-(4-Chloro-3-trifluoromethyl-phenyl)-1-methyl-1-{4-[2-(1-methyl-1H-pyrazol-4-yl)-pyridin-4-yloxy]-phenyl}-urea] | ≤ 10 µM | ≤ 10 µM | ≤ 10 µM

Further lines, results first:

Row | IC50 [1] | IC50 (VEGFR2 kinase) | IC50 (PDGFRβ kinase) | Compound
16 | ≤ 10 µM | ≤ 10 µM | ≤ 10 µM | Cn1cc(-c2cc(Oc3ccc(F)c(NC(=O)Nc4ccc(C(F)(F)F)cc4Cl)c3)ncn2)cn1 [Example 97, 1-(2-Chloro-4-(trifluoromethyl)phenyl)-3-(2-fluoro-5-(6-(1-methyl-1H-pyrazol-4-yl)pyrimidin-4-yloxy)phenyl)urea]
17 | ≤ 10 µM | ≤ 10 µM | ≤ 10 µM | Cn1cc(-c2nccc(Oc3ccc(NC(=O)Nc4cccc(C(F)(F)F)c4)cc3)n2)cn1 [Example 99, 1-(4-(2-(1-Methyl-1H-pyrazol-4-yl)pyrimidin-4-yloxy)phenyl)-3-(3-(trifluoromethyl)phenyl)urea]
18 | > 10 µM | ≤ 10 µM | ≤ 10 µM | Cn1cc(-c2cc(Oc3ccc(NC(=O)Nc4ccc(C(F)(F)F)cc4)cc3)ncn2)cn1 [Example 101, 1-(4-(6-(1-Methyl-1H-pyrazol-4-yl)pyrimidin-4-yloxy)phenyl)-3-(4-(trifluoromethyl)phenyl)urea]
19 | ≤ 10 µM | ≤ 10 µM | ≤ 10 µM | O=C(Nc1cccc(Oc2cc(-c3ccnc4ccnn34)ncn2)c1)Nc1ccc(Cl)c(C(F)(F)F)c1 [Example 106, 1-(4-Chloro-3-(trifluoromethyl)phenyl)-3-(3-(6-(pyrazolo[1,5-a]pyrimidin-7-yl)pyrimidin-4-yloxy)phenyl)urea]
20 | > 10 µM | > 10 µM | > 10 µM | CN(C(=O)Nc1ccc(Oc2ccnc(-c3nnco3)c2)cc1)c1ccc(Cl)c(C(F)(F)F)c1 [Example 108, 3-(4-(2-(1,3,4-Oxadiazol-2-yl)pyridin-4-yloxy)phenyl)-1-(4-chloro-3-(trifluoromethyl)phenyl)-1-methylurea]
21 | ≤ 10 µM | ≤ 10 µM | ≤ 10 µM | CN(C(=O)Nc1ccc(Cl)c(C(F)(F)F)c1)c1ccc(Oc2ccnc(-c3nnco3)c2)cc1 [Example 110, 1-(4-(2-(1,3,4-Oxadiazol-2-yl)pyridin-4-yloxy)phenyl)-3-(4-chloro-3-(trifluoromethyl)phenyl)-1-methylurea]
22 | > 10 µM | > 10 µM | ≤ 10 µM | CN(C(=O)Nc1ccc(Cl)c(C(F)(F)F)c1)c1cccc(Oc2ccnc(-c3nnco3)c2)c1 [Example 111]
